Reference: ChEMBL document CHEMBL3745691, “Identification of a small molecule HIV-1 inhibitor that targets the capsid hexamer” (Bioorg Med Chem Lett, 2016)
Activity calls are given as the source filed them. The rule behind the calls is not given here.

Assays:
[1] = tested on: Human immunodeficiency virus 1; experiment: Antiviral activity against HIV1 NL4-3 pseudotyped with JR-FL envelope infected in human U87.CD4.CCR5 cells by single-round infection assay; format: functional, organism-based; details: Human immunodeficiency virus 1, NL4-3, U87/CD4/CCR5
[2] = Binding affinity to HIV1 capsid protein p24 by SPR assay; set-up: species or system Human immunodeficiency virus 1
[3] = Cytotoxicity against human U87 cells expressing CD4.CCR5; format: cell-based, U-87MG ATCC
[4] = tested on: Human immunodeficiency virus 1; experiment: Binding affinity to HIV1 capsid protein p24 assessed as turbidity at 100 uM by spectrophotometer analysis
[5] = tested on: Human immunodeficiency virus 1; experiment: Inhibition of HIV1 capsid protein p24 interaction with CPSF6 (308-327) at 2.5 uM
[6] = Therapeutic index, ratio of CC50 for human U87 cells expressing CD4.CCR5 to IC50 for HIV1 NL4-3 pseudotyped with JR-FL envelope; format: cell-based, U-87MG ATCC; details: read-out: Ratio CC50/IC50
[7] = tested on: Human immunodeficiency virus 1; experiment: Inhibition of HIV1 capsid protein p24 interaction with CPSF6 (308-327) at 300 uM

Row | SMILES | IC50 [1] [µM] | Kd [2] [µM] | CC50 [3] [µM] | Activity [4] | inhibition [5] | selectivity ratio [6] | inhibition [7]
1 | O=C(Cc1c[nH]c2ccccc12)NCC1(c2ccccc2)CC1 | 18.1 | 38.2 | 526 | Active | Active | > 29 | –
2 | Cc1[nH]c2ccccc2c1CC(=O)N[C@@H](Cc1ccccc1)C(=O)N(C)c1ccccc1 | – | 2.53 | – | Active | – | – | Active
